According to patent US9765074B2, “Inhibitors of the renal outer medullary potassium channel” (Merck Sharp & Dohme Corp., priority 2013, dated 2017):

Target: T1, hROMK (hKir1.1) (Homo sapiens, UniProt P48048)
T1 construct: expressed in transfected cells
T1 sequence (P48048 1-391): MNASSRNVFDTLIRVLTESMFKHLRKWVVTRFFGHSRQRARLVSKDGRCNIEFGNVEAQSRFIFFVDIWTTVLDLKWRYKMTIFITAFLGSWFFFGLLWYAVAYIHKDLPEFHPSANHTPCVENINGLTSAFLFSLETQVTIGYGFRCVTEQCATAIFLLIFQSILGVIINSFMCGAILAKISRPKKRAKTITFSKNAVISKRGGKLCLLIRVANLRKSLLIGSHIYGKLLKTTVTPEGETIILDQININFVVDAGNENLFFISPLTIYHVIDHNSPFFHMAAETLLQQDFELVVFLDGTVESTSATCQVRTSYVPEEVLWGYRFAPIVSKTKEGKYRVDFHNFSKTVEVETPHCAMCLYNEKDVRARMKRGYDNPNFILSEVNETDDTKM
Assay: Thallium Flux Assay (ROMK channel functional thallium flux, FLIPR-Tetra)
Type: cell-based
Details: HEK293 cells stably expressing hROMK (hKir1.1); 30 min compound incubation
Outline: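 Thallium flux read by FluxOR fluorescence ([…]) for ~10 min after adding 3 mM Tl+/0.3 mM K+ final. Stable HEK-hKir1.1 cells were dye-loaded 90 min, exposed to compound 30 min at room temperature in ouabain/probenecid buffer; IC50 relative to a 3 μM control inhibitor.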

Structure (SMILES) | IC50 [nM]
CC1=C(N2CCC3(CCN(CCc4ncc(-n5cnnn5)nc4C)CC3)C2=O)COC1=O [Example 252, 2-(4-methyl-5-oxo-2,5-dihydrofuran-3-yl)-8-{2-[3-methyl-5-(1H-tetrazol-1-yl)pyrazin-2-yl]ethyl}-2,8-diazaspiro[4.5]decan-1-one] | 10
CC1=CN(C2=C(C)C(=O)OC2)C(=O)C12CCN(CCc1ccc(-n3cnnn3)nn1)CC2 [Example 253, 4-methyl-2-(4-methyl-5-oxo-2,5-dihydrofuran-3-yl)-1-oxo-8-{2-[6-(1H-tetrazol-1-yl)pyridazin-3-yl]ethyl}-2-aza-8-azoniaspiro[4.5]dec-3-ene] | 20
COC(=O)c1cc(-n2cnnn2)ncc1CCN1CCC2(CC1)CCN(C1=C(C)C(=O)OC1)C2=O [Example 254, methyl 5-(2-(2-(4-methyl-5-oxo-2,5-dihydrofuran-3-yl)-1-oxo-2,8-diazaspiro[4.5]decan-8-yl)ethyl)-2-(1H-tetrazol-1-yl)isonicotinate] | 30
CC1=CC2(CCN(CCc3ccc(-n4cnnn4)nn3)CC2)C(=O)N1C1=CC(=O)OC1 [Example 255, 3-methyl-2-(5-oxo-2,5-dihydrofuran-3-yl)-8-{2-[6-(1H-tetrazol-1-yl)pyridazin-3-yl]ethyl}-2,8-diazaspiro[4.5]dec-3-en-1-one] | 20
CC1=CN(C2=C(C)C(=O)OC2)C(=O)C12CCN(CCc1nnc(-n3cnnn3)cc1C)CC2 [Example 256, 4-methyl-2-(4-methyl-5-oxo-2,5-dihydrofuran-3-yl)-8-{2-[4-methyl-6-(1H-tetrazol-1-yl)pyridazin-3-yl]ethyl}-1-oxo-2-aza-8-azoniaspiro[4.5]dec-3-ene] | 30
Cc1nc(-n2cnnn2)cnc1CCN1CCC2(CC1)C[C@H](C)N(C1=CC(=O)OC1)C2=O [Example 261, (3S)-3-methyl-8-{2-[3-methyl-5-(1H-tetrazol-1-yl)pyrazin-2-yl]ethyl}-2-(5-oxo-2,5-dihydrofuran-3-yl)-2,8-diazaspiro[4.5]decan-1-one] | 3
Cc1cc(-n2cnnn2)nnc1CCN1CCC2(CC1)C[C@H](C)N(C1=CC(=O)OC1)C2=O [Example 262, (3S)-3-methyl-8-{2-[4-methyl-6-(1H-tetrazol-1-yl)pyridazin-3-yl]ethyl}-2-(5-oxo-2,5-dihydrofuran-3-yl)-2,8-diazaspiro[4.5]decan-1-one] | 4
CC1=C(N2C=CC3(CCN(CCc4ncc(-n5cnnn5)nc4C)CC3)C2=O)COC1=O [Example 263, 2-(4-methyl-5-oxo-2,5-dihydrofuran-3-yl)-8-{2-[3-methyl-5-(1H-tetrazol-1-yl)pyrazin-2-yl]ethyl}-1-oxo-2-aza-8-azoniaspiro[4.5]dec-3-ene] | 10
C[C@H]1CC2(CCN(CCc3ccc(-n4cnnn4)nn3)CC2)C(=O)N1C1=CC(=O)OC1 [Example 264, (3S)-3-methyl-2-(5-oxo-2,5-dihydrofuran-3-yl)-8-{2-[6-(1H-tetrazol-1-yl)pyridazin-3-yl]ethyl}-2,8-diazaspiro[4.5]decan-1-one] | 3
Cc1nc(-n2cnnn2)cnc1CCN1CCC2(CC1)CCN(C1=CC(=O)OC1)C2=O [Example 269, 8-{2-[3-methyl-5-(1H-tetrazol-1-yl)pyrazin-2-yl]ethyl}-2-(5-oxo-2,5-dihydrofuran-3-yl)-2,8-diazaspiro[4.5]decan-1-one] | 20
C[C@H]1CC2(CCN(CCc3ncc(-n4cnnn4)nc3C3CC3)CC2)C(=O)N1C1=CC(=O)OC1 [Example 270, (S)-8-(2-(3-cyclopropyl-5-(1H-tetrazol-1-yl)pyrazin-2-yl)ethyl)-3-methyl-2-(5-oxo-2,5-dihydrofuran-3-yl)-2,8-diazaspiro[4.5]decan-1-one] | 10
CCc1nc(-n2cnnn2)cnc1CCN1CCC2(CC1)C[C@H](C)N(C1=CC(=O)OC1)C2=O [Example 271, (S)-8-(2-(3-ethyl-5-(1H-tetrazol-1-yl)pyrazin-2-yl)ethyl)-3-methyl-2-(5-oxo-2,5-dihydrofuran-3-yl)-2,8-diazaspiro[4.5]decan-1-one] | 5
CC1=C(N2CCC3(CCN(C[C@H](F)c4cnc(-n5cnnn5)cn4)CC3)C2=O)COC1=O [Example 276, (S)-8-(2-(5-(1H-Tetrazol-1-yl)pyrazin-2-yl)-2-fluoroethyl)-2-(4-methyl-5-oxo-2,5-dihydrofuran-3-yl)-2,8-diazaspiro[4.5]decan-1-one] | 50
CC1=C(N2CCC3(CCN(C[C@@H](F)c4cnc(-n5cnnn5)cn4)CC3)C2=O)COC1=O [Example 277, 8-{(2R)-2-fluoro-2-[5-(1H-tetrazol-1-yl)pyrazin-2-yl]ethyl}-2-(4-methyl-5-oxo-2,5-dihydrofuran-3-yl)-1-oxo-2-aza-8-azoniaspiro[4.5]decane] | 80
CC1=C(N2CCC3(CCN(C[C@H](F)c4ccc(-n5cnnn5)nn4)CC3)C2=O)COC1=O [Example 278, 8-{(2S)-2-fluoro-2-[6-(1H-tetrazol-1-yl)pyridazin-3-yl]ethyl}-2-(4-methyl-5-oxo-2,5-dihydrofuran-3-yl)-1-oxo-2-aza-8-azoniaspiro[4.5]decane] | 30
CC1=C(N2CCC3(CCN(C[C@H](F)c4ccc(-n5cnnn5)cn4)CC3)C2=O)COC1=O [Example 279, 8-{(2S)-2-fluoro-2-[5-(1H-tetrazol-1-yl)pyridin-2-yl]ethyl}-2-(4-methyl-5-oxo-2,5-dihydrofuran-3-yl)-1-oxo-2-aza-8-azoniaspiro[4.5]decane] | 20
CC1=C(N2CCC3(CCN(C[C@@H](F)c4ccc(-n5cnnn5)cn4)CC3)C2=O)COC1=O [Example 280, 8-{(2R)-2-fluoro-2-[5-(1H-tetrazol-1-yl)pyridin-2-yl]ethyl}-2-(4-methyl-5-oxo-2,5-dihydrofuran-3-yl)-1-oxo-2-aza-8-azoniaspiro[4.5]decane] | 30
CO[C@H](CN1CCC2(CC1)CCN(C1=C(C)C(=O)OC1)C2=O)c1cnc(-n2cnnn2)cn1 [Example 281, 8-{(2R)-2-methoxy-2-[5-(1H-tetrazol-1-yl)pyrazin-2-yl]ethyl}-2-(4-methyl-5-oxo-2,5-dihydrofuran-3-yl)-1-oxo-2-aza-8-azoniaspiro[4.5]decane] | 140
CO[C@@H](CN1CCC2(CC1)CCN(C1=C(C)C(=O)OC1)C2=O)c1ccc(-n2cnnn2)cn1 [Example 282, 8-{(2S)-2-methoxy-2-[5-(1H-tetrazol-1-yl)pyridin-2-yl]ethyl}-2-(4-methyl-5-oxo-2,5-dihydrofuran-3-yl)-1-oxo-2-aza-8-azoniaspiro[4.5]decane] | 70
CO[C@@H](CN1CCC2(CC1)CCN(C1=C(C)C(=O)OC1)C2=O)c1cnc(-n2cnnn2)cn1 [Example 283] | 60
CC1=C(N2CCC3(CCN(C[C@H](OC(C)C)c4ccc(-n5cnnn5)nc4)CC3)C2=O)COC1=O [Example 285, 8-{(2R)-2-(1-methylethoxy)-2-[6-(1H-tetrazol-1-yl)pyridin-3-yl]ethyl}-2-(4-methyl-5-oxo-2,5-dihydrofuran-3-yl)-1-oxo-2-aza-8-azoniaspiro[4.5]decane] | 50
CO[C@H](CN1CCC2(CC1)C[C@@H](C)N(C1=C(C)C(=O)OC1)C2=O)c1ccc(-n2cnnn2)nc1 [Example 287, (3R)-8-{(2S)-2-methoxy-2-[6-(1H-tetrazol-1-yl)pyridin-3-yl]ethyl}-3-methyl-2-(4-methyl-5-oxo-2,5-dihydrofuran-3-yl)-1-oxo-2-aza-8-azoniaspiro[4.5]decane] | 100
CO[C@@H](CN1C2CCC1CC1(CCN(C3=C(C)C(=O)OC3)C1=O)C2)c1ccc(-n2cnnn2)nc1 (stereo partly drawn) [Example 288, (1R,3R,5S)-S-((R)-2-(6-(1H-tetrazol-1-yl)pyridin-3-yl)-2-methoxyethyl)-1′-(4-methyl-5-oxo-2,5-dihydrofuran-3-yl)-8-azaspiro[bicyclo[3.2.1]octane-3,3′-pyrrolidin]-2′-one] | 30
CO[C@@H](CN1CCC2(CC1)CCN(C1=C(C)C(=O)OC1)C2=O)c1ccc(-n2cnnn2)nc1 [Example 289, (R)-8-(2-(6-(1H-tetrazol-1-yl)pyridin-3-yl)-2-methoxyethyl)-2-(4-methyl-5-oxo-2,5-dihydrofuran-3-yl)-2,8-diazaspiro[4.5]decan-1-one] | 20
